Test results as given in publication PMC10053710, “Influence of Lipidation Pattern of the KR12 Fragment of Peptide LL-37 on Its Antibacterial and Hemolytic Activities” (International Journal of Molecular Sciences, 2023).
Values after ≈ are worked out from the molar mass of the structure shown. Where two headings read alike, the source gives them in different places. Where a SMILES comes first, the peptide text is derived from it. Where no end group is shown, it is not given here. The star is where a group is joined. Deoxycholoyl = C[C@H](CCC(=O)*)[C@H]1CC[C@H]2[C@@H]3CC[C@@H]4C[C@H](O)CC[C@]4(C)[C@H]3C[C@H](O)[C@]12C; Benzoyl(4-Ph) = O=C(c1ccc(-c2ccccc2)cc1)*; Butanoyl(4-Ph) = O=C(CCCc1ccccc1)*; Octanoyl = CCCCCCCC(=O)*; X2 = O=C(C#Cc1ccccc1)*

Key:
[1] = RP-HPLC adjusted retention time as measure of hydrophobicity; format: physicochemical; conditions: chromatographic, Phenomenex Gemini-NX C18 4.6 × 150 mm, linear gradient 10–100% B (0.1% TFA in ACN) in A (0.1% aqueous TFA) over 10 min, 25 °C, 0.5 mL/min, UV 214 nm; used as hydrophobicity measure
Source text: The identity of the purified peptides was confirmed using electrospray ionization mass spectrometry (ESI-MS) in positive ion mode and the results are shown in Table S1 (Supplementary Materials).
The conjugation of KR12-NH2 with aliphatic and aromatic acids affords more hydrophobic compounds than the parent molecule, but it depends on the modified amino group involved. The conjugation of C8 to N^α amino group of the N-terminal amino acid gives a more distinct increase in hydrophobicity than that of C8 in the sidechain of lysine residues (i.e., II vs. III; IV vs. V). […] Moreover, in the acidic conditions of the mobile phase (0.1% TFA; pH 2,) both amino groups are protonated. Hypothetically, the acylation of the N^α-amino group disrupts the helix macrodipole and eliminates excessive positive charge. The dipole moment and positive charge can obviously contribute to peptide hydrophilicity. This phenomenon applies exclusively to the N^α-amino group, but not so much to N^ε. […]
Finally, the peptides were purified with solid-phase extraction (SPE) on Isolute ^TM SPE columns (flash, C18, 25 mL). The eluates were fractionated, and the purity of the peptides was determined on a Varian ProStar HPLC system controlled by a Galaxie Chromatography Data System with a Phenomenex Gemini-NX C18 column (4.6 × 150 mm, 110 Å pore size, 5 µm particle size). […]

[2] = test system: S. aureus ATCC 6538; format: cell-based, Staphylococcus aureus; conditions: ATCC 6538, 18 h
Method: (§1) Tests of the antibacterial activity were carried out as we just described. Briefly, for assays, the following strains of ESKAPE bacteria were chosen: Acinetobacter baumannii ATCC BAA-1605, Enterococcus faecium ATCC 700221, Klebsiella aerogenes ATCC 13048 (formerly Enterobacter aerogenes), Klebsiella pneumoniae ATCC 700603, and Pseudomonas aeruginosa ATCC 9027. Moreover, the reference strains of Staphylococcus aureus were used: S. aureus ATCC 25923, S. aureus ATCC 6538, S. aureus ATCC 33591 (MRSA), S. aureus ATCC 9144, and S. aureus ATCC 12598. Before experiments, all the strains were stored at −80 °C in Roti®-Store cryo vials (Carl Roth GmbH, Karlsruhe, Germany). To evaluate the activity of the compounds, bacteria were transferred into fresh Mueller–Hinton medium (Becton Dickinson, Warszawa, Poland) and incubated for 24 h at 37 °C. In the next step, bacterial inoculums were seeded on Mueller–Hinton agar plates (BioMaxima SA, Lublin, Poland) and incubated again for 24 h. The MIC values were determined using the broth microdilution method according to the Clinical and Laboratory Standards Institute Protocol. The initial inoculums of bacteria (0.5 × 10^5 colony forming units (CFU)/mL) prepared in Mueller–Hinton broth were exposed to the ranging concentrations of peptides (1–512 µg/mL). The experiments were conducted on 96-well microtiter plates, with a final volume of 100 µL. The inoculum densities were checked spectrophotometrically (Multiskan™ GO Microplate Spectrophotometer, Thermo Scientific, Waltham, MA, USA) at 600 nm. The results were read after incubation for 18 h at 37 °C. The MIC values were the lowest concentration at which a visible growth of microorganisms was inhibited. All experiments were conducted in triplicate. Moreover, positive (growth) and negative (sterility) controls were included.

[3] = test system: S. aureus ATCC 12598; format: cell-based, Staphylococcus aureus; conditions: ATCC 12598, 18 h
Method: as §1

[4] = test system: S. aureus ATCC 33591 (MRSA); format: cell-based, Staphylococcus aureus; conditions: ATCC 33591, 18 h
Method: as §1

[5] = test system: S. aureus ATCC 9144; format: cell-based, Staphylococcus aureus; conditions: ATCC 9144, 18 h
Method: as §1

[6] = test system: S. aureus ATCC 25923; format: cell-based, Staphylococcus aureus; conditions: ATCC 25923, 18 h
Method: as §1

[7] = test system: reference strains of Staphylococcus aureus; assay: MIC over the five reference strains of S. aureus (geometric mean, range, selectivity); format: cell-based; conditions: MIC values of Table 3
Method: Selectivity indexes were calculated based on the MHC5 and geometric mean (GM) of MIC values against S. aureus strains.
as §1, with “The initial inoculums of bacteria (0.5 × 10^5 colony forming units (CFU)/mL) prepared in Mueller–Hinton broth were exposed to the ranging concentrations of peptides (1–512 µg/mL). The experiments were conducted on 96-well microtiter plates, with a final volume of 100 µL. The inoculum densities were checked spectrophotometrically (Multiskan™ GO Microplate Spectrophotometer, Thermo Scientific, Waltham, MA, USA) at 600 nm.” left out, “The MIC values were the lowest concentration at which a visible growth of microorganisms was inhibited. All experiments were conducted in triplicate. Moreover, positive (growth) and negative (sterility) controls were included.” left out

[8] = test system: Klebsiella pneumoniae ATCC 700603; format: cell-based; conditions: ATCC 700603, 18 h
Method: as §1

[9] = test system: Pseudomonas aeruginosa ATCC 9027; format: cell-based; conditions: ATCC 9027, 18 h
Method: as §1

[10] = test system: Klebsiella aerogenes ATCC 13048; format: cell-based; conditions: ATCC 13048, 18 h
Method: as §1

[11] = test system: Enterococcus faecium ATCC 700221; format: cell-based; conditions: ATCC 700221, 18 h
Method: as §1

[12] = test system: human red blood cells (hRBCs); assay: Hemolysis assay; conditions: 4% (v/v) erythrocytes in PBS, peptides 1–512 µg/mL, 1 h at 37 °C, hemoglobin at 540 nm
[13] = fresh batch of blood (footnote a)
[14] = 100% = 1% Triton-X 100, ≥ means less than 5% hemolysis up to 512 µg/mL

Compound	MIC A. baumannii (18 h) [µg/mL]	HPLC tR (adjusted retention time, t'R) [1] [min]	MIC S. aureus 6538 [2] [µg/mL]	MIC S. aureus 12598 [3] [µg/mL]	MIC S. aureus 33591 [4] [µg/mL]	MIC S. aureus 9144 [5] [µg/mL]	MIC S. aureus 25923 [6] [µg/mL]	GM (geometric mean of the MIC values against S. aureus) [7]	MIC K. pneumoniae [8] [µg/mL]	MIC P. aeruginosa [9] [µg/mL]	MIC K. aerogenes [10] [µg/mL]	MIC E. faecium [11] [µg/mL]	MHC5 (minimum hemolytic concentration causing 5% hemolysis of hRBCs) [12, 13]	MHC5 (minimum hemolytic concentration causing 5% hemolysis of hRBCs) [12, 14] [µg/mL]	MIC A. baumannii (Mueller–Hinton broth, 0.5 × 10^5 CFU/mL, peptides 1–512 µg/mL, 18 h at 37 °C, triplicate) [µg/mL]
CCCCCCCC(=O)NCCCC[C@H](NC(=O)[C@H](CCCNC(=N)N)NC(=O)[C@@H](NC(=O)[C@@H](NC(=O)[C@H](CCC(N)=O)NC(=O)[C@H](CCCNC(=N)N)NC(=O)[C@@H](NC(=O)[C@H](CCCCN)NC(=O)[C@H](CC(=O)O)NC(=O)[C@H](Cc1ccccc1)NC(=O)[C@H](CC(C)C)NC(=O)[C@@H](N)CCCNC(=N)N)[C@@H](C)CC)C(C)C)[C@@H](C)CC)C(N)=O [XI, retro-KR12-C8^ε-NH2] (H-RLFDKIRQVIRK(Octanoyl)-NH2)	64 (≈ 37.7 µM)	5.05	16 (≈ 9.43 µM)	512 (≈ 302 µM)	512 (≈ 302 µM)	256 (≈ 151 µM)	128 (≈ 75.4 µM)	168.9	512 (≈ 302 µM)	128 (≈ 75.4 µM)	512 (≈ 302 µM)	32 (≈ 18.9 µM)	–	–	–
CC[C@H](C)[C@H](NC(=O)[C@H](CCCNC(=N)N)NC(=O)[C@H](CCC(N)=O)NC(=O)[C@@H](NC(=O)[C@@H](NC(=O)[C@H](CCCNC(=N)N)NC(=O)[C@H](CCCCN)NC(=O)CCCc1ccccc1)[C@@H](C)CC)C(C)C)C(=O)N[C@@H](CCCCN)C(=O)N[C@@H](CC(=O)O)C(=O)N[C@@H](Cc1ccccc1)C(=O)N[C@@H](CC(C)C)C(=O)N[C@@H](CCCNC(=N)N)C(N)=O [XVIII, 4-Phenylbutanoic acid-KR12-NH2] ({Butanoyl(4-Ph)}-KRIVQRIKDFLR-NH2)	4 (≈ 2.33 µM)	–	32 (≈ 18.6 µM)	32 (≈ 18.6 µM)	16 (≈ 9.32 µM)	8 (≈ 4.66 µM)	32 (≈ 18.6 µM)	–	16 (≈ 9.32 µM)	64 (≈ 37.3 µM)	32 (≈ 18.6 µM)	8 (≈ 4.66 µM)	128 ^a µg/mL	–	–
CC[C@H](C)[C@H](NC(=O)[C@H](CCCNC(=N)N)NC(=O)[C@H](CCC(N)=O)NC(=O)[C@@H](NC(=O)[C@@H](NC(=O)[C@H](CCCNC(=N)N)NC(=O)[C@H](CCCCN)NC(=O)C#Cc1ccccc1)[C@@H](C)CC)C(C)C)C(=O)N[C@@H](CCCCN)C(=O)N[C@@H](CC(=O)O)C(=O)N[C@@H](Cc1ccccc1)C(=O)N[C@@H](CC(C)C)C(=O)N[C@@H](CCCNC(=N)N)C(N)=O [XX, Phenylpropiolic acid-KR12-NH2] (X2-KRIVQRIKDFLR-NH2)	32 (≈ 18.8 µM)	–	8 (≈ 4.71 µM)	32 (≈ 18.8 µM)	32 (≈ 18.8 µM)	16 (≈ 9.42 µM)	128 (≈ 75.3 µM)	–	32 (≈ 18.8 µM)	64 (≈ 37.7 µM)	16 (≈ 9.42 µM)	4 (≈ 2.35 µM)	–	256	–
CC[C@H](C)[C@H](NC(=O)[C@H](CCCNC(=N)N)NC(=O)[C@H](CCC(N)=O)NC(=O)[C@@H](NC(=O)[C@@H](NC(=O)[C@H](CCCNC(=N)N)NC(=O)[C@H](CCCCN)NC(=O)c1ccc(-c2ccccc2)cc1)[C@@H](C)CC)C(C)C)C(=O)N[C@@H](CCCCN)C(=O)N[C@@H](CC(=O)O)C(=O)N[C@@H](Cc1ccccc1)C(=O)N[C@@H](CC(C)C)C(=O)N[C@@H](CCCNC(=N)N)C(N)=O [XXI, 4-Phenylbenzoic acid-KR12-NH2] ({Benzoyl(4-Ph)}-KRIVQRIKDFLR-NH2)	8 (≈ 4.57 µM)	–	2 (≈ 1.14 µM)	4 (≈ 2.28 µM)	4 (≈ 2.28 µM)	4 (≈ 2.28 µM)	8 (≈ 4.57 µM)	–	8 (≈ 4.57 µM)	16 (≈ 9.14 µM)	4 (≈ 2.28 µM)	2 (≈ 1.14 µM)	–	32	–
CC[C@H](C)[C@H](NC(=O)[C@H](CCCNC(=N)N)NC(=O)[C@H](CCC(N)=O)NC(=O)[C@@H](NC(=O)[C@@H](NC(=O)[C@H](CCCNC(=N)N)NC(=O)[C@H](CCCCN)NC(=O)CC[C@@H](C)[C@H]1CC[C@H]2[C@@H]3CC[C@@H]4C[C@H](O)CC[C@]4(C)[C@H]3C[C@H](O)[C@]12C)[C@@H](C)CC)C(C)C)C(=O)N[C@@H](CCCCN)C(=O)N[C@@H](CC(=O)O)C(=O)N[C@@H](Cc1ccccc1)C(=O)N[C@@H](CC(C)C)C(=O)N[C@@H](CCCNC(=N)N)C(N)=O [XXII, Deoxycholic acid-KR12-NH2] (Deoxycholoyl-KRIVQRIKDFLR-NH2)	–	–	4 (≈ 2.06 µM)	8 (≈ 4.11 µM)	256 (≈ 132 µM)	8 (≈ 4.11 µM)	32 (≈ 16.4 µM)	–	64 (≈ 32.9 µM)	128 (≈ 65.8 µM)	128 (≈ 65.8 µM)	2 (≈ 1.03 µM)	8 µg/mL	–	8 (≈ 4.11 µM)
KRIVQRIKDFLR-NH2 [I, KR12-NH2]	256	–	512	>512	>512	>512	>512	–	>512	128	>512	128	–	≥512	–
